From PMC11912471 (Journal of Medicinal Chemistry, 2025)
Structures can show the parent of a compound that is named as a salt.

Assays:
[1] = molecular target: T1, endogenous ODC in Kelly neuroblastoma cells (Homo sapiens, UniProt P11926); assay: Cell-based ODC activity assay; settings: 500 μM inhibitor, Figure 6A
T1 construct: host or cells: Kelly neuroblastoma cells
T1 sequence (P11926 1-461): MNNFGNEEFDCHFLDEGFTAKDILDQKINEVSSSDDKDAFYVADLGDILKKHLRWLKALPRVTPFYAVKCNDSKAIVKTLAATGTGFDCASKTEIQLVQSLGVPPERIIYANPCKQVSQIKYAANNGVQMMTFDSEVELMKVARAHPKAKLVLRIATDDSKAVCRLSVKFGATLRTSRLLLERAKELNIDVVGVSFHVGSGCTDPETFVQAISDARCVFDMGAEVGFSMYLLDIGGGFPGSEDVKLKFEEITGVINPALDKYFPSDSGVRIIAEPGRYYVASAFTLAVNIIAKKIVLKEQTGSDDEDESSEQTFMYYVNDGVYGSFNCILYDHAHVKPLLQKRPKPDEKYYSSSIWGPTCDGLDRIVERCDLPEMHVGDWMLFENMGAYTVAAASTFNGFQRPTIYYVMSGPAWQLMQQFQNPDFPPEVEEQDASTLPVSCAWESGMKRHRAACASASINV
Method: In vitro ODC activity was measured using 100 ng of purified human ODC enzyme, as we previously described.[53],[99] ODC was incubated with increasing concentrations of inhibitors for 30 min at room temperature in a buffer containing 25 mM Tris and 0.1 mM EDTA. Each of the reactions was added to 200 μL of assay mix containing 6.25 mM Tris HCl (pH 7.5), 100 μM L-ornithine, 50 μM pyridoxal-5-phosphate, 1.56 mM DTT and 0.1 μCi [1–14C] L-ornithine (American Radiolabeled Chemicals, Inc., specific activity 55 mCi/mmol) in a microcentrifuge tube. In the cell-based ODC activity assay, Kelly neuroblastoma cells that were treated with 500 μM inhibitors were harvested in a buffer containing 25 mM Tris HCl, 0.1 mM EDTA, and 2.5 mM DTT. Fifty microliters of each homogenate were added to 200 μL of assay mix containing 6.25 mM tris HCl (pH 7.5), 500 μM L-ornithine, 50 μM pyridoxal-5-phosphate, 1.56 mM DTT and 0.1 μCi [1–14C] L-ornithine (American Radiolabeled Chemicals, Inc., specific activity 55 mCi/mmol) in a microcentrifuge tube. […] Disintegrations per minute (DPM) of each sample was measured using a TriCarb liquid scintillation counter (PerkinElmer). The specific ODC activity is expressed as nmol CO2/min/mg protein (in vitro) or pmol CO2/min/mg protein (cell-based). The individual ODC inhibitor IC50 values were determined using Graphpad Prism 8.

[2] = molecular target: homogeneous bovine brain spermidine synthase; design: method as in PMID 3861182; settings: competitive; read-out: Ki, competitive inhibitor of bovine brain spermidine synthase; cited from earlier work
[3] = system: human ODC; design: method as in earlier work; settings: 49−51; cited from earlier work
[4] = cited from earlier work
[5] = molecular target: homogeneous liver adenosylmethionine decarboxylase; design: method as in PMID 3861182; settings: irreversible; read-out: Ki, irreversible inhibitor of liver adenosylmethionine decarboxylase; cited from earlier work
[6] = molecular target: homogeneous mouse kidney ODC; design: method as in PMID 3861182; settings: competitive; read-out: Ki, competitive inhibitor of mouse kidney ODC; cited from earlier work
[7] = no reference printed for this property; cited from earlier work

Q: Which “endogenous cellular ODC activity relative to control (in words)” value [1] does the source give for `NCCCON` [APA, 3-(Aminooxy)propan-1-Amine Dihydrochloride] here?
A: significantly reduced

Q: What about the Ki [2] of the same molecule?
A: 2300 nM

Q: What about the “IC50 against human ODC (in words)” value [3] of the same molecule?
A: low nM range

Q: What about the “potency against human ODC, times higher than that of DFMO” value [3] of the same molecule?
A: 10,000 times

Q: What about the “pKa of hydroxyl amine” value [4] of the same molecule?
A: ~5.9

Q: And the Ki [5]?
A: 50000 nM

Q: What about the Ki [6] of the same molecule?
A: 3.2 nM

Q: And the “water solubility (in words)” value [7]?
A: highly water-soluble

Q: Which “endogenous cellular ODC activity relative to control (in words)” value [1] does the source give for `Cl.Cl.NOCC1(F)CCNC1` (stereo not drawn) [Compound 11, 3-[(aminooxy)methyl]-3-fluoropyrrolidine di-formic acid] here?
A: greatest reduction
